IC50 and MIC data for 7 molecules are collected here from ChEMBL document CHEMBL3352042, “Synthesis of novel benzimidazole functionalized chiral thioureas and evaluation of their antibacterial and anticancer activities” (Bioorg Med Chem Lett, 2014).

Values after ≈ are worked out from the molar mass of the structure shown. Active and inactive are the calls of the source. The rule behind the calls is not given here.

The test system of test [1] is A549. Nature of the test: Cytotoxicity against human A549 cells by MTT assay. It is filed as functional, cell-based. The settings on record: Homo sapiens, A549; read-out: IC50.
Test [2] relates to Staphylococcus aureus. Nature of the test: Antibacterial activity against Staphylococcus aureus MLS16 MTCC 2940 after 24 hrs by well diffusion method. It is filed as functional.
For test [3], the system named is HeLa. Nature of the test: Cytotoxicity against human HeLa cells by MTT assay. It is filed as functional, cell-based. On the technique in general: Tetrazolium dyes change colour on reduction, which living cells bring about.
Test [4] has as its system Micrococcus luteus. Nature of the test: Antibacterial activity against Micrococcus luteus MTC 2470 after 24 hrs by well diffusion method. It is filed as functional.
Test [5] deals with Staphylococcus aureus. Nature of the test: Antibacterial activity against Staphylococcus aureus MTCC 96 after 24 hrs by well diffusion method. It is filed as functional. (In general: Agar diffusion results depend on both activity and mobility in agar.)
Test [6] concerns DU-145. Nature of the test: Cytotoxicity against human DU145 cells by MTT assay. It is filed as functional, cell-based. As to conditions: Homo sapiens, DU-145; read-out: IC50.
Test [7] concerns Bacillus subtilis. Nature of the test: Antibacterial activity against Bacillus subtilis MTCC 121 after 24 hrs by well diffusion method. It is filed as functional.
Test [8] deals with Pseudomonas aeruginosa. Briefly: Antibacterial activity against Pseudomonas aeruginosa MTCC 2453 after 24 hrs by well diffusion method. It is filed as functional.
Test [9] relates to Raoultella planticola. Nature of the test: Antibacterial activity against Klebsiella planticola MTCC 530 after 24 hrs by well diffusion method. It is filed as functional.
Test [10] has as its system MCF7. Briefly: Cytotoxicity against human MCF7 cells by MTT assay. It is filed as functional, cell-based.
Test [11] deals with Escherichia coli. Briefly: Antibacterial activity against Escherichia coli MTCC 739 after 24 hrs by well diffusion method. It is filed as functional.
Setting [12] is: Homo sapiens, HeLa, read-out: IC50.
[13] abbreviates: Homo sapiens, MCF7, read-out: IC50.

What is called IC50 is the concentration at which inhibition is half-maximal. In general, MIC refers to the least concentration at which growth counts as inhibited. Take `CC(C)C[C@@H](NC(=S)NCc1ccccc1)c1nc2ccccc2[nH]1`: the half-maximal inhibitory concentration (IC50) in test [1] worked out at 22.4 µM; in [3] (setting [12]) it was 21.2 µM; in test [6], 21.2 µM; in test [10] (setting [13]) it was 18.2 µM. The MIC result in test [2], in test [4], in test [5], in test [7], in [8] and in test [9] was “inactive” each time. The MIC entry in [11] was “inactive”.

On to `CC(C)[C@@H](NC(=S)Nc1ccccc1)c1nc2ccccc2[nH]1`, for which the 50% inhibitory concentration (IC50) in test [1] was 31.5 µM; in [3] (hela) it was “Not Active”; in test [6], 34.8 µM; in test [10] (mcf7), “Not Active”. Also, the MIC entry in test [2], in [4], in test [5], in test [7], in [8] and in test [9] was “inactive” throughout. In addition, in test [11], the MIC entry was “inactive”.

Consider `CC(C)[C@H](NC(=S)NCc1ccccc1)c1nc2ccccc2[nH]1`, for which the IC50 in test [1] was 56.1 µM; in [3] (setting [12]), 49.9 µM; in [6], 48.5 µM; in test [10] (setting [13]) it was 57.8 µM. Further, the minimal inhibitory concentration (MIC) in test [2] (MLS16 MTCC 2940, 24 h) is greater than 200 µg/mL; in [4] (MTC 2470, 24 h), greater than 200 µg/mL; in test [5] (MTCC 96, 24 h), 12.5 µg/mL (≈ 36.9 µM); in test [7] (MTCC 121, 24 h), 12.5 µg/mL (≈ 36.9 µM); in test [8] (MTCC 2453, 24 h), greater than 200 µg/mL; in test [9] (MTCC 530, 24 h) it was greater than 200 µg/mL. Moreover, in test [11] (MTCC 739, 24 h), the minimum inhibitory concentration (MIC) was greater than 200 µg/mL.

Consider `CC(C)C[C@@H](NC(=S)Nc1cc(C(F)(F)F)cc(C(F)(F)F)c1)c1nc2ccccc2[nH]1`, for which the half-maximal inhibitory concentration (IC50) in test [1] was 10.2 µM; in test [3] (setting [12]), 10.4 µM; in [6] it was 16.5 µM; in test [10] (setting [13]) it was 91 µM. In addition, the MIC entry in test [2], in test [4], in [5], in test [7], in [8] and in test [9] was “inactive” throughout. Also, the MIC entry in test [11] is “inactive”.

For the molecule `S=C(NCc1ccccc1)N[C@H](Cc1ccccc1)c1nc2ccccc2[nH]1`, the IC50 is 26.5 µM in test [1], “Not Active” in [3] (hela), 24.3 µM in test [6] and 32.2 µM in test [10] (setting [13]). For the same molecule, the MIC result in [2], in test [4], in test [5], in [7], in test [8] and in test [9] was “inactive” each time. The MIC entry in test [11] was “inactive”.

Consider `CC(C)C[C@H](NC(=S)Nc1cc(C(F)(F)F)cc(C(F)(F)F)c1)c1nc2ccccc2[nH]1`, for which the half-maximal inhibitory concentration (IC50) in [1] is 17.4 µM; in test [3] (setting [12]), 18.1 µM; in test [6], 17.2 µM; in test [10] (setting [13]) it was 16.3 µM. Moreover, the minimal inhibitory concentration (MIC) in [2] (MLS16 MTCC 2940, 24 h) came out at 12.5 µg/mL (≈ 26.3 µM); in test [4] (MTC 2470, 24 h) it was 6.25 µg/mL (≈ 13.2 µM); in test [5] (MTCC 96, 24 h), 25 µg/mL (≈ 52.7 µM); in test [7] (MTCC 121, 24 h), 12.5 µg/mL (≈ 26.3 µM); in test [8] (MTCC 2453, 24 h), 25 µg/mL (≈ 52.7 µM); in test [9] (MTCC 530, 24 h), 12.5 µg/mL (≈ 26.3 µM). For the same molecule, the lowest concentration to inhibit growth in test [11] (MTCC 739, 24 h) (MIC) was 12.5 µg/mL (≈ 26.3 µM).

`S=C(NCc1ccccc1)N[C@@H](Cc1ccccc1)c1nc2ccccc2[nH]1`: the IC50 turned out to be 32.8 µM in test [1], 30.1 µM in test [3] (setting [12]), 39.7 µM in [6] and 40.2 µM in test [10] (setting [13]). Besides, the minimum inhibitory concentration (MIC) in test [2] (MLS16 MTCC 2940, 24 h) is greater than 200 µg/mL; in test [4] (MTC 2470, 24 h), greater than 200 µg/mL; in [5] (MTCC 96, 24 h), 25 µg/mL (≈ 64.7 µM); in test [7] (MTCC 121, 24 h) it was greater than 200 µg/mL; in test [8] (MTCC 2453, 24 h) it was greater than 200 µg/mL; in [9] (MTCC 530, 24 h) it was greater than 200 µg/mL. In test [11] (MTCC 739, 24 h), this molecule displayed an MIC greater than 200 µg/mL.
